Drawing on PubChem BioAssay (NCI), this text covers TGI for 16 molecules.

Holding throughout (assay): NCI-60 cell line screen, 48 h
Experiment [1] has as its system NCI-H460 lung.
Experiment [2] deals with A549 NSCLC.
Experiment [3] deals with U251 CNS.
In experiment [4] the test system is SNB-19 CNS.
Experiment [5] relates to MDA-MB-435.
Experiment [6] has as its system RPMI-8226 leukemia.
For experiment [7], the system named is OVCAR-4 ovarian.
Experiment [8] relates to A498 renal.
Experiment [9] has as its system UACC-257 melanoma.
The subject of experiment [10] is SF-539 CNS.
The test system of experiment [11] is TK-10 renal.
For experiment [12], the system named is SK-MEL-5 melanoma.
The subject of experiment [13] is NCI/ADR-RES ovarian.
Experiment [14] deals with HS 578T breast.
Experiment [15] has as its system HL-60(TB) leukemia.
For experiment [16], the system named is LOX IMVI melanoma.
The subject of experiment [17] is MOLT-4 leukemia.
Experiment [18] deals with IGROV1 ovarian.
For experiment [19], the system named is MALME-3M melanoma.
Experiment [20] concerns MDA-N.

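In this assay, cells in 96-well plates receive the compound at five concentrations for 48 hours. Endpoints are linearly interpolated between the surrounding concentrations. TGI: total growth inhibition.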

Consider `COc1ccc(C(=O)Oc2c(C#N)sc3c2c(=O)n(-c2ccccc2)c(=S)n3-c2ccccc2)cc1`, for which the TGI in experiment [1] is above 100 µM; in [2], above 100 µM; in experiment [3] it was above 100 µM; in experiment [4] it was above 100 µM; in [5], 60.7 µM; in experiment [6], 47.1 µM. The TGI in experiment [7] is 79 µM; in experiment [8], 41.4 µM; in [9], above 100 µM; in [10], 49.3 µM; in [11], 76 µM; in experiment [12], 58 µM. Besides, the TGI in experiment [13] came to 52 µM; in experiment [14], 69.6 µM; in experiment [15], 49.7 µM; in [16], 46.2 µM; in [17], 46.5 µM; in experiment [18], 44.4 µM.

In the case of `CC(C)N(C(=O)C12C3C4C1C1C2C3C41C(=O)N(C(C)C)C(C)C)C(C)C` (configuration not stated), the TGI in experiment [1], in experiment [2], in experiment [3], in experiment [4], in [6] and in [7] was above 50 µM in each case. Besides, the TGI in experiment [8], in experiment [9], in experiment [10], in [11], in experiment [12] and in [19] was above 50 µM in each case. The TGI in [15], in experiment [16], in experiment [17] and in experiment [18] was above 50 µM each time.

In the case of `CCC(C)N1CN(c2ccccc2)C2(CCN(CCCSc3ccc(F)cc3)CC2)C1=O` (configuration not stated), the TGI was 15.1 µM in experiment [2]; 13.7 µM in experiment [3]; 19.7 µM in experiment [4]; 11.7 µM in experiment [5]; 5.72 µM in [6]; 7.37 µM in [9]. In addition, the TGI in experiment [10] is 6.32 µM; in experiment [11], 11.2 µM; in experiment [12] it was 4.62 µM; in experiment [13], 11 µM; in [19], 15.8 µM; in experiment [15], 17.8 µM. Further, the TGI in [16] worked out at 8.35 µM; in experiment [20], 10.7 µM; in [17] it was 13.3 µM; in experiment [18], 14.2 µM.

Turning to `Cc1ccc(/N=N/C(=NNC(=O)c2ccc(C)cc2)c2ccc(N(C)C)cc2)cc1`, the TGI in experiment [1] is 80.3 µM; in experiment [2] it was 87.9 µM; in experiment [3], above 100 µM; in experiment [4], 58.7 µM; in experiment [5] it was 39.5 µM; in experiment [6], 70.5 µM. The TGI was 54 µM in experiment [7]; 60 µM in [9]; above 100 µM in [10]; above 100 µM in experiment [11]; 30.7 µM in [12]; above 100 µM in [13]. Further, the TGI in experiment [14] is above 100 µM; in experiment [15] it was 72.1 µM; in [16], above 100 µM; in experiment [20] it was 46.1 µM; in experiment [17], above 100 µM; in [18], above 100 µM.

`COc1cccc(C(NC2=NCCC=N2)c2cc3c(cc2O)OCO3)c1O` (configuration not stated): the TGI was above 100 µM in experiment [1]; above 100 µM in experiment [2]; 31.9 µM in experiment [3]; above 100 µM in experiment [4]; 88.8 µM in [5]; 50 µM in [6]. The TGI was 78.8 µM in [8]; above 100 µM in experiment [9]; 46.8 µM in [10]; above 100 µM in experiment [11]; above 100 µM in [12]; 79.7 µM in experiment [14]. In addition, the TGI was above 100 µM in [19]; 23.3 µM in experiment [15]; 41.2 µM in experiment [16]; above 100 µM in [20]; 63 µM in experiment [17]; above 100 µM in experiment [18].

Regarding `C[C@@]1(OC(=O)c2cc([N+](=O)[O-])cc([N+](=O)[O-])c2)C[C@@H]2CCCC[C@@H]21`, the TGI in experiment [1], in experiment [2], in experiment [3], in experiment [4], in [6] and in experiment [7] was above 100 µM each time. Moreover, the TGI in [9], in experiment [10], in experiment [11], in experiment [12], in [13] and in experiment [14] was above 100 µM each time. Besides, the TGI in experiment [19], in [15], in experiment [16], in [20], in experiment [17] and in experiment [18] was above 100 µM each time.

As for `CN(CCNC(=S)c1cn(C)c2c1ccc1ccccc12)CCNC(=S)c1cn(C)c2c1ccc1ccccc12`, the TGI in experiment [1], in experiment [2], in [3], in experiment [4], in [5] and in experiment [7] was above 100 µM in each case. Moreover, the TGI in experiment [9], in [10], in experiment [11], in [12], in experiment [13] and in experiment [14] was above 100 µM each time. Moreover, the TGI in experiment [19], in experiment [16], in [17] and in experiment [18] was above 100 µM in each case.

As for `CN(C)C(F)=PC(F)(F)F` (configuration not stated), the TGI in [1], in experiment [2], in [3], in experiment [4], in experiment [6] and in [7] was above 100 µM each time. The TGI in experiment [8], in [9], in experiment [10], in [11], in experiment [12] and in [19] was above 100 µM each time. The TGI in experiment [15], in experiment [16], in [17] and in [18] was above 100 µM in each case.

`c1ccc(C2=C(c3ccccc3)Sc3nnc(CCCCCCCCc4nnc5n4NC(c4ccccc4)=C(c4ccccc4)S5)n3N2)cc1`: the TGI in experiment [1], in experiment [2], in [3], in [4], in experiment [5] and in experiment [6] was above 100 µM throughout. Moreover, the TGI in experiment [7], in [8], in experiment [9], in [10], in experiment [11] and in [12] was above 100 µM each time. Besides, the TGI was above 100 µM in experiment [13]; above 100 µM in experiment [14]; above 100 µM in [19]; 37.2 µM in experiment [15]; above 100 µM in experiment [16]; 49.9 µM in experiment [17].

For the molecule `CCc1ccccc1NC(=O)CC1NC(=O)CS1` (configuration not stated), the TGI in [1], in experiment [2], in experiment [3], in experiment [4], in [6] and in experiment [7] was above 100 µM each time. The TGI in experiment [8], in experiment [9], in experiment [10], in experiment [11], in experiment [12] and in experiment [19] was above 100 µM throughout. The TGI in experiment [15], in experiment [16], in [17] and in experiment [18] was above 100 µM throughout.

`CS(=O)(=O)C1(Br)S(=O)(=O)OCCOS1(=O)=O`: the TGI in experiment [1], in experiment [2], in [3], in [4], in experiment [6] and in experiment [7] was above 100 µM throughout. Besides, the TGI in experiment [8], in experiment [9], in [10], in [11], in experiment [12] and in experiment [19] was above 100 µM throughout. Besides, the TGI in experiment [15], in experiment [16], in experiment [17] and in experiment [18] was above 100 µM in each case.

For the molecule `CC(C)CCC[C@@H](C)[C@H]1CC[C@H]2C3=C[C@H](OS(=O)(=O)O)[C@@]4(O)C[C@@H](O)CC[C@]4(C)[C@@]3(O)CC[C@]12C`, the TGI in experiment [1], in [2], in experiment [3], in experiment [4], in experiment [5] and in experiment [6] was above 100 µM each time. Moreover, the TGI in experiment [7], in [8], in [9], in experiment [10], in experiment [11] and in [12] was above 100 µM throughout. In addition, the TGI in experiment [13], in experiment [19], in experiment [16], in [20], in [17] and in experiment [18] was above 100 µM in each case.

On to `O=c1ccc2ccccc2c2ccccc12`, for which the TGI in experiment [1] came to 13.8 µM; in experiment [2], 31.8 µM; in experiment [3], 4.93 µM; in experiment [4], 8.73 µM; in experiment [6], 7.83 µM; in experiment [7] it was 20.4 µM. Besides, the TGI in experiment [8] was 52.2 µM; in experiment [9] it was 16.6 µM; in experiment [10], 4.09 µM; in experiment [11], 28 µM; in [12] it was 12.7 µM; in [19], 22.3 µM. Further, the TGI in experiment [15] is 9.97 µM; in experiment [16], 3.99 µM; in experiment [17], 20.3 µM; in [18], 19 µM.

For the molecule `O=C1CSC(c2ccccc2O)N1c1ccc(Oc2ccc(Cl)cc2)c(Cl)c1` (configuration not stated), the TGI in [1] stood at 43.6 µM; in experiment [2], 49.3 µM; in [3] it was 39.5 µM; in [4], 65 µM; in experiment [5], 69 µM; in experiment [6], 89.1 µM. The TGI is 66.1 µM in [7]; 81.4 µM in [9]; 32.9 µM in [10]; above 100 µM in experiment [11]; 33.8 µM in [12]; 48.4 µM in [13]. Besides, the TGI worked out at 38 µM in experiment [14]; 30.2 µM in experiment [19]; 51.2 µM in [15]; 32.8 µM in [16]; 81 µM in [17]; 77.4 µM in [18].

As to `COC(=O)CCC(NC(=S)N/N=C(\C)c1cnccn1)C(=O)OC` (configuration not stated), the TGI in experiment [1], in [2], in [3], in experiment [4], in experiment [6] and in experiment [7] was above 100 µM each time. The TGI in experiment [8], in experiment [9], in experiment [10], in experiment [11], in experiment [12] and in experiment [19] was above 100 µM each time. Also, the TGI in experiment [15] is 38.6 µM; in experiment [16], above 100 µM; in experiment [17], 61 µM; in [18], above 100 µM.

For the molecule `CCC(=O)C(CCN1CCC(N2C(=O)C(CCC#N)c3ccccc32)CC1)(c1ccccc1)c1ccccc1` (configuration not stated), the TGI in [1] amounted to 26.9 µM; in [2], 31.7 µM; in experiment [3] it was 27.8 µM; in [4], 32 µM; in experiment [5] it was 17.6 µM; in experiment [6] it was 21.8 µM. Further, the TGI in experiment [8] came to 40.1 µM; in experiment [9], 26.7 µM; in experiment [10], 34.5 µM; in [11], 31.2 µM; in experiment [12] it was 22.1 µM; in experiment [13], 25 µM. Further, the TGI in experiment [14] was found to be 26.5 µM; in [19], 24.8 µM; in [15] it was 22.2 µM; in experiment [16] it was 27 µM; in experiment [17] it was 25 µM; in experiment [18], 30.5 µM.
